Where “and” joins values, the source holds several entries; their conditions need not be identical. Identical values can stand only once.
Key:
Type in all cases: physicochemical
Hygroscopicity test = test: Hygroscopicity test
From the text: Compounds with low hygroscopicity are advantageous in preparing formulations, and also are advantageous for storage. Additionally, compounds with high hygroscopicity are not advantageous in that they are difficult to formulate, and reproducible results may hardly be obtained even though formulations can be successfully achieved.

[1] = Static-electricity inducibility test (bulk density, tapped density, Carr's Index); conditions: for CI (Carr's Index): CI=100×(1−BD/TD), ≦30 value - good flowability
[2] = Stability test under a photo-stressed condition
[3] = Crystal stability test under severe stability testing conditions
Method: Finally, a crystal stability test was performed to examine the stability of the crystalline form itself, and the results are shown in Table 4 below.

[4] = after 4 weeks, photo-stressed condition
[5] = after 4 weeks, photo-stressed condition (1,200,000 lux or higher and 200 W/m^2 or higher)
[6] = after 4 weeks at 60±2° C., 80±5% RH

Row | Compound | Hygroscopicity (Hygroscopicity test; 33% RH, after 4 weeks) | Hygroscopicity (Hygroscopicity test; 75% RH, after 4 weeks) | Hygroscopicity (Hygroscopicity test; 93% RH, after 4 weeks) | BD (bulk density) [1] | TD (tapped density) [1] | CI (Carr's Index) [1] | Content of impurities (related compounds) [2, 4] | Appearance [2, 5] | Appearance ([2]; initial stage) | Content of impurities (related compounds) ([2]; initial stage) | further results
1 | Cc1nc2c(O[C@H]3CCOc4cc(F)cc(F)c43)cc(C(=O)N(C)C)cc2[nH]1 [Non-crystalline form, 4-[((4S)-5,7-difluoro-3,4-dihydro-2H-chromen-4-yl)oxy]-N,N,2-trimethyl-1H-benzimidazole-6-carboxamide] | 1.90 | 4.09 | 5.25 | 0.23 g/mL and 0.22 g/mL | 0.39 g/mL and 0.38 g/mL | 41.02% and 42.11% | 0.49% | yellow | white | 0.16% | Hygroscopicity (Hygroscopicity test; initial stage): 1.32; Increase in content of related compounds ([2]; after 4-week photoexposure vs initial): ≥ 3 fold; Increase in content of optical isomers ([2]; after 4 weeks photo-stressed condition vs initial): 10 fold; Content of optical isomers [2, 4]: 0.47%; Content of optical isomers ([2]; initial stage): 0.04%; Content of impurities (related compounds) ([2]; initial stage, listed as non-crystalline form): 0.16%
2 | Cc1nc2c(O[C@H]3CCOc4cc(F)cc(F)c43)cc(C(=O)N(C)C)cc2[nH]1 [Crystalline form A, 4-[((4S)-5,7-difluoro-3,4-dihydro-2H-chromen-4-yl)oxy]-N,N,2-trimethyl-1H-benzimidazole-6-carboxamide] | 0.17 | 0.20 | 0.28 | 0.34 g/mL and 0.32 g/mL | 0.45 g/mL | 24.44% and 28.89% | 0.10% | white | white | 0.10% | Hygroscopicity values (Hygroscopicity test; stored at 33%, 75% and 93% relative humidity for 4 weeks): below 0.3; Crystalline form [3, 6]: crystalline form A; DSC [3, 6]: 223 °C; Crystalline form ([3]; initial stage): crystalline form A; DSC ([3]; initial stage): 223 °C; Optical purity [2, 4]: 100%; Content of impurities (related compounds) ([2]; after 4 weeks, photo-stressed condition, listed as crystalline form A): ≤ 0.1%; Content of impurities (related compounds) ([2]; initial stage, listed as crystalline form A): ≤ 0.1%
